This note sets out measurements from patent US10239831B2, “Method for producing bis(3-aminophenyl)disulfides and 3-aminothiols” (BAYER CROPSCIENCE AG, priority 2012, dated 2019).

The data set in a line: log P determination. Format: physicochemical. Conditions: for chromatographic logP: HCOOH (acidic); for logP: neutral.

On to `O=[N+]([O-])c1cc(SSc2cc([N+](=O)[O-])c(Cl)cc2Cl)c(Cl)cc1Cl` [Example 5, 1,1′-Disulphanediylbis(2,4-dichloro-5-nitrobenzene)], for which the chromatographic logP is 5.69 and the logP turned out to be 5.64.

With `Nc1cc(SSc2cc(N)c(Cl)cc2Cl)c(Cl)cc1Cl` [Example 14, 3,3′-Disulphanediylbis(4,6-dichloroaniline)], the chromatographic logP amounted to 5.14 and the logP amounted to 4.95.
